In US20120115817A1, “PHTHALIMIDE DERIVATIVES OF NON-STEROIDAL ANTI-INFLAMMATORY COMPOUNDS AND/OR TNF-ALPHA MODULATORS, METHOD FOR PRODUCING SAME, PHARMACEUTICAL COMPOSITIONS CONTAINING SAME AND USES THEREOF FOR THE TREATMENT OF INFLAMMATORY DISEASES” (EMS S.A., priority 2009, published 2012):
“Also recorded” adds a separate entry of the source.

Assays:
[1] = tested on: rat paw edema induced by carrageenan; assay: Rat paw edema induced by carrageenan; assay type: in vivo, Wistar rat; details: orally; for anti-inflammatory activity compared with carrageenan-only control / anti-inflammatory activity compared with the standard NSAID: single dose of 100 μmol/kg
Experimental: The anti-inflammatory activity of new phthalmidic derivatives claimed in this patent was evaluated through the model of paw edema induced by carrageenin.
The methodology to be reported can be found in detail in Bandarage, U. K.; Chen, L.; Fang, X.; Garvey, U. S.; Glavin, A.; Janero, D. R.; Letts, L. G.; Mercer, G. J.; Saha, J. K.; Schroeder, J. D.; Shumway, M. J.; Tam, S. W. Nitrosothiol Esters of Diclofenac: Synthesis and Pharmacological Characterization of the Gastrointestinal-Sparing Prodrugs. J. Med. Chem. v. 43, p. 4005-4016, 2000.
The injection of carrageenan in Wistar rat paw causes edema and local inflammation which can be seen by the increased thickness of the rat paw. Pre-treatment with compounds that have anti-inflammatory activity decreases the edema and inflammation caused by carrageenan administration.
The compounds of this invention have been administrated one (1) hour before inoculation of the irritating agent, carrageenan in the paws of the animals with the aid of a gavage tube orally, using water as a solvent.
The monitoring of the inflammation and the anti-inflammatory activity of the compounds of the invention was made by measuring the thickness in millimeters, of the rat's paw.
The control group received sub plantar injection, in the hind paws, the irritating chemical agent, carrageenan, and saline solution, orally.
The hind paws were measured before treatment and hourly for 6 hours after administration of carrageenan, through the thickness to determine their volumes (in mm). The results were expressed as the difference between the readings of the paws before and after treatments.

[2] = tested on: gastric mucosa; assay: Gastric lesion test (gastric ulcerogenesis); assay type: in vivo, rat; parameters: key to grade of gastric lesion (ulceration): ground zero for the ulceration of compounds that do not damage the gastric lining; lesions <1 mm=grade 1; 1.5 to 2.5 mm grade 2; 2.5 to 3.5 mm=grade 3; 3.5 to 4.5 mm, and grade 4; >4.5 mm=grade 5; details: for grade of gastric lesion (ulceration) / change in color or morphology of the gastric mucosa / lesion on the gastric lining / gastric ulceration: single dose of 100 μmol/kg; for grade of gastric lesion (ulceration): scale zero to 5
Text: We performed the evaluation of gastric lesions caused by new anti-inflammatory derived from phthalimide of the invention and compared with standard anti-inflammatory drugs (without molecular modification). The compounds were classified according to the grade of damage caused on a scale ranging from 1-5. It was assumed that: lesions <1 mm=grade 1, 1.5 to 2.5 mm grade 2, 2.5 to 3.5 mm=grade 3, 3.5 to 4.5 mm, and grade 4=>4.5 mm=grade 5. The results obtained were reported as averages±E. P. M. All results were submitted to the variance homogeneity test (Levene's Test) to confirm homogeneity. The results with not significant p (above 0.05), were subsequently subjected to Variance Analysis (ANOVA) followed by multiple comparison test (post hoc analyses) such as the Newman-Keul's test, and only the values of p were considered when they were equal or below 0.05.
The stomachs were also evaluated on the number of lesions observed.
In order to characterize the profile of gastric lesion caused by the new anti-inflammatory derivatives of the invention the extent of the lesions caused by the administration of said anti-inflammatory agents was measured.
The gastric ulcerogenesis was verified in the same animals from the groups used for the paw's edema model.
After six hours of readings of the legs, the animals were euthanized in CO2 and had their stomachs removed, opened towards greater curvature and washed with saline.
Through the exposure of the mucosa its color and integrity were shown. In the case of the existence of lesions, these were counted and measured according to the rate of gastric ulcerogenesis (IUG), which abides by numerical criteria for the classification of gastric mucosal lesions: (lesions <1 mm=1; 1.5 to 2.5 mm=2; 2.5 to 3.5 mm=3, 3.5 to 4.5 mm=4 and >4.5 mm=5). The results obtained were reported as averages±E. P. M.

[3] = tested on: abdominal contortions induced by acetic acid; assay: Abdominal contortion test induced by acetic acid; assay type: in vivo, Swiss mice; details: mice, oral; for inhibitory activity of abdominal contortion: 100 μmol/kg (FIG. 8); for Average (abdominal contortions): acetic acid 0.1 N; for % of inhibition of abdominal contortions: acetic acid 0.1 N (Table 2)
Experimental: Additionally, we conducted the evaluation of possible adverse reactions of the compounds of the invention through the abdominal contortion test induced by acetic acid. […] The results are represented in FIG. 8.
The antinociceptive profile was evaluated by testing abdominal contortions induced by acetic acid in mice. In this assay, there were used Swiss mice of both sexes weighing between 21 and 28 g, fasted for a period of approximately 8 hours. The test-substance was administered orally and had as the gum Arabic at 5% as vehicle. One hour later, it was administered acetic acid at 0.1 N (0.1 mL/10 g weight) in the peritoneal cavity of the animals. Ten minutes after injection of acetic acid, the contortions were counted for 20 minutes.

[4] = tested on: abdominal contortions induced by acetic acid; details: reports in the literature; cited from earlier work

Compound	anti-inflammatory activity compared with carrageenan-only control [1]	grade of gastric lesion (ulceration) ([2]; rat)	inhibitory activity of abdominal contortion [3]	Average (abdominal contortions) ([3]; 100 μmol/kg)	% of inhibition of abdominal contortions ([3]; 100 μmol/kg)	change in color or morphology of the gastric mucosa ([2]; rat)	lesion on the gastric lining / gastric ulceration ([2]; rat)	also measured
O=C(NN1C(=O)c2ccccc2C1=O)c1ccccc1O [Example 1.3, N-(1,3-dioxy-1,3-dihydro-2H-isoindol-2-yl)-2-hydroxybenzamide]	significant anti-inflammatory activity	1 (lesions <1 mm=grade 1)	around 17.2%	54.5	17.2%	–	–	total area of lesions ([2]; observed in six stomachs, 100 μmol/kg): 2.9 mm^2; size of microlesions on the stomach lining ([2]; rat, 100 μmol/kg): less than 1 mm; analgesic activity ([3]; 100 μmol/kg): showed no analgesic activity
CC(C)Cc1ccc(C(C)C(=O)NN2C(=O)c3ccccc3C2=O)cc1 (stereo not shown) [Example 2.3, N-(1,3-dioxy-1,3-dihydro-2H-isoindol-2-yl)-2-(4-isobutylphenyl)propanamide]	significant anti-inflammatory activity	zero	–	–	–	a little change in color of the mucosa	no lesion on the gastric lining	anti-inflammatory activity compared with the standard NSAID [1]: superior activity compared with ibuprofen
COc1ccc2cc(C(C)C(=O)NN3C(=O)c4ccccc4C3=O)ccc2c1 (stereo not shown) [Example 3.3, N-(1,3-dioxy-1,3-dihydro-2H-isoindol-2-yl)-2-(6-methoxy-2-naphtyl)propanamide]	significant anti-inflammatory activity	zero	around 42.5%	37.8	42.5%	did not observe any—macro- and microscopically—morphological change or in the color of the stomach tissue	no lesion on the gastric lining	anti-inflammatory activity compared with the standard NSAID [1]: superior activity compared with ibuprofen; also recorded: much greater than naproxen
CC(C(=O)NN1C(=O)c2ccccc2C1=O)c1cccc(C(=O)c2ccccc2)c1 (stereo not shown) [Example 4.3, 2-(3-benzoylphenyl)-N-(1,3-dioxy-1,3-dihydro-2H-isoindol-2-yl)propanamide]	–	–	~37.9%	40.8	37.9%	–	–	–
O=C(Cc1ccccc1Nc1c(Cl)cccc1Cl)NN1C(=O)c2ccccc2C1=O [Example 5.3, 2-{2-[(2,6-dichlorophenyl)amino]phenyl}-N-(1,3-dioxy-1,3-dihydro-2H-isoindol-2-yl)acetamide]	significant anti-inflammatory activity	zero	~16.2%	55.1	16.2%	a little change in the color of the mucosa	no lesion on the gastric lining	anti-inflammatory activity compared with diclofenac at 120 minutes ([1]; 100 μmol/kg, time of 120 minutes): significantly higher anti-inflammatory activity than that of diclofenac; anti-inflammatory activity compared with diclofenac at 240 and 360 minutes ([1]; 100 μmol/kg, times 240 and 360 minutes): same activity profile is kept; anti-inflammatory activity compared with the standard NSAID [1]: significant anti-inflammatory activity when compared to positive control (carrageenan), and to diclofenac
Cc1ccc(Nc2c(F)cccc2Cl)c(CC(=O)NN2C(=O)c3ccccc3C2=O)c1 [Example 6.3, 2-{2-[(2-chloro-6-fluorophenyl)amine]-5-methylphenyl}-N-(1,3-dioxy-1,3-dihydro-2H-isoindol-2-1)acetamide]	significant anti-inflammatory activity	zero	–	–	–	did not observe any—macro- and microscopically—morphological change or in the color of the stomach tissue	no lesion on the gastric lining	–
Cc1ccc(-c2cc(C(F)(F)F)nn2-c2ccc(S(N)(=O)=O)cc2)cc1 [celecoxib, reference compound]	–	2 (1.5 to 2.5 mm grade 2)	–	–	–	–	–	–
O=C(O)Cc1ccccc1Nc1c(Cl)cccc1Cl [diclofenac, reference compound]	–	5 (>4.5 mm=grade 5)	–	–	–	–	–	analgesic activity in this model according to the literature [4]: do not have analgesic activity
CC(C)Cc1ccc(C(C)C(=O)O)cc1 (stereo not shown) [ibuprofen, reference compound]	–	5 (>4.5 mm=grade 5)	–	–	–	–	–	–
Cc1ccc(Nc2c(F)cccc2Cl)c(CC(=O)O)c1 [lumiracoxib, reference compound]	–	2 (1.5 to 2.5 mm grade 2)	–	–	–	–	–	–
COc1ccc2cc([C@H](C)C(=O)O)ccc2c1 [naproxen, reference compound]	–	5 (>4.5 mm=grade 5)	about 43%	–	–	–	–	–
O=C(O)c1ccccc1O [salicylic acid, reference compound]	–	5 (>4.5 mm=grade 5)	–	–	–	–	–	–
